This assay relates to Trichomonas vaginalis. The assay is described as follows: In vitro activity against T. vaginalis (IC50 determination). Type of assay: cell-based. Conditions: 37° C., aerobic, Modified Diamonds Medium. The method, then: The antiprotozoal e.g. antitrichomonal, activity of the compounds of the present invention may be assessed by conventional methods, for example by determining the minimum inhibition concentration (m.i.c.) or 50% inhibition level (IC50).
Modified Diamonds Medium (MDM) was prepared according to the method described in J. Kulda et al., American Journal of Obstetrics and Gynaecology 1970, 108, 908-18 and 4 cm^3 of the medium was pipetted into each of a series of tubes (usually 16 tubes). To each tube was added 0.5 cm^3 of varying concentration of a solution (usually in ethanol+MDM) or suspension of the test drug. Duplicate tubes for each drug concentration were prepared.
Finally, to each tube was added T. vaginalis (0.5 cm^3) at a concentration of 1×10^5 cm^-3,) to give a final trichomonad concentration of 1×10^4 cm^-3 in each tube. The tubes were then incubated (aerobically) at 37° C. and the resulting trichomonad numbers were counted at 24 and 48 hours using a haemacytometer.
This information was then used to determine the 50% inhibition concentration (IC50).

Where [1] appears, read: 24 hr, 1×10^4 trichomonads cm^-3, read-out: IC50 24 hr.
Where [2] appears, read: 48 hr, 1×10^4 trichomonads cm^-3, read-out: IC50 48 hr.

≈ marks a conversion by molar mass, not a printed value. Read-outs that look alike come from different tables or passages of the source.

Regarding `CCCCOc1ccc2c(c1)CCN=C2/C(Br)=C/c1ccccc1` [Example 147, (Z)-6-Butyloxy-1-(1-bromo-2-phenylvinyl)-3,4-dihydroisoquinoline], the half-inhibitory concentration (IC50) (usually the concentration needed to halve the response being measured) under setting [1] was 0.2 µg/mL (≈ 0.52 µM) and the half-inhibitory concentration (IC50) under setting [2] amounted to 0.3 µg/mL (≈ 0.781 µM).

Regarding `C(=C\c1ccsc1)/C1=NCCc2cc(OCc3ccccc3)ccc21` [Example 106, (E)-6-Benzyloxy-3,4-dihydro-1-(3-thienyl)vinyl isoquinoline], the IC50 by setting is: under setting [1], 1.4 µg/mL (≈ 4.05 µM); under setting [2], 3.7 µg/mL (≈ 10.7 µM).

Consider `CC(C)(C)c1ccc(Oc2ccc3c(c2)CCN=C3C=Cc2ccccc2)cc1` [Example 73, 6-(4-t-Butylphenoxy)-3,4-dihydro-1-styrylisoquinoline], for which the half-inhibitory concentration (IC50) reads like this: under setting [1], 0.4 µg/mL (≈ 1.05 µM); under setting [2], 1.1 µg/mL (≈ 2.88 µM).

For `COc1ccc(OCc2ccccc2)c2c1C(C=Cc1ccccc1)=NCC2` [Example 174, 5-Benzyloxy-3,4-dihydro-8-methoxy-1-styryl-isoquinoline], the concentration for half-maximal inhibition (IC50) reads like this: under setting [1], 1.4 µg/mL (≈ 3.79 µM); under setting [2], 2 µg/mL (≈ 5.41 µM).

Turning to `CC(C)COc1ccc2c(c1)CCN=C2C=Cc1ccccc1Cl` [Example 47, 1-(2-Chlorostyryl)-3,4-dihydro-6-(2-methylpropyloxy)-isoquinoline], the half-inhibitory concentration (IC50) was determined as 1.1 µg/mL (≈ 3.24 µM) under setting [1] and 1.7 µg/mL (≈ 5 µM) under setting [2].

On to `CCCCOc1ccc2c(c1)CCN=C2C=Cc1ccc(C(C)(C)C)cc1` [Example 15, 6-Butyloxy-1-(4-t-butylstyryl)-3,4-dihydroisoquinoline], for which the IC50 turned out to be 1.5 µg/mL (≈ 4.15 µM) under setting [1] and 2.8 µg/mL (≈ 7.74 µM) under setting [2].

In the case of `CCCCOc1ccc2c(c1)CCN=C2C=Cc1ccccc1Cl` [Example 12, 6-Butyloxy-1-(2-chlorostyryl)-3,4-dihydroisoquinoline], the IC50 reads like this: under setting [1], 1.2 µg/mL (≈ 3.53 µM); under setting [2], 2 µg/mL (≈ 5.88 µM).

For `O=[N+]([O-])c1ccc(/C=C/C2=NCCc3cc(OCc4ccccc4)ccc32)o1` [Example 115, (E)-6-Benzyloxy-3,4-dihydro-1-[2-(5-nitro-2-furyl)]vinyl isoquinoline], the concentration for half-maximal inhibition (IC50) runs as follows: under setting [1], 0.4 µg/mL (≈ 1.07 µM); under setting [2], 1 µg/mL (≈ 2.67 µM).

Turning to `Clc1ccc(C=CC2=NCCc3c2ccc(OCc2ccccc2)c3OCc2ccccc2)cc1` [Example 172, 5,6-Bis(benzyloxy)-1-(4-chlorostyryl)-3,4-dihydroisoquinoline], the concentration for half-maximal inhibition (IC50) under setting [1] was determined as 0.7 µg/mL (≈ 1.46 µM) and the half-inhibitory concentration (IC50) under setting [2] turned out to be 2 µg/mL (≈ 4.17 µM).

As for `CC=CC1=NCCc2cc(OCCC)ccc21` [Example 137, 3,4-Dihydro-1-prop-1-enyl-6-propyloxyisoquinoline], the IC50 is, setting by setting: under setting [1], 1 µg/mL (≈ 4.36 µM); under setting [2], 1.7 µg/mL (≈ 7.41 µM).

In the case of `CCCCOc1ccc2c(c1)CCN=C2/C=C/c1cccs1` [Example 105, (E)-6-Butyloxy-3,4-dihydro-1-[2-(2-thienyl)vinyl]isoquinoline], the concentration for half-maximal inhibition (IC50) was 2 µg/mL (≈ 6.42 µM) under setting [1] and 6.7 µg/mL (≈ 21.5 µM) under setting [2].

As to `COc1ccc(OCc2ccccc2)c2c1C(C=Cc1ccc(C#N)cc1)=NCC2` [Example 175, 5-Benzyloxy-1-(4-cyanostyryl)-3,4-dihydro-8-methoxyisoquinoline], the IC50 by setting is: under setting [1], 0.4 µg/mL (≈ 1.01 µM); under setting [2], 1 µg/mL (≈ 2.54 µM).

As to `CC(C)(C)c1ccc(Oc2ccc3c(c2)CCN=C3C=Cc2ccc(Cl)cc2Cl)cc1` [Example 71, 6-(4-t-Butylphenoxy)-1-(2,4-dichlorostyryl)-3,4-dihydroisoquinoline], the IC50 under setting [1] amounted to 0.8 µg/mL (≈ 1.78 µM) and the 50% inhibitory concentration (IC50) under setting [2] worked out at 1.4 µg/mL (≈ 3.11 µM).

As for `CCCOc1cc2c(cc1OCCC)C(C=Cc1ccc(Cl)cc1Cl)=NC(C)C2` (centres unmarked) [Example 158, 1-(2,4-Dichlorostyryl)-3,4-dihydro-3-methyl-6,7-dipropyloxyisoquinoline], the IC50 reads like this: under setting [1], 0.8 µg/mL (≈ 1.85 µM); under setting [2], 1.1 µg/mL (≈ 2.54 µM).

As to `Brc1csc(/C=C/C2=NCCc3cc(OCc4ccccc4)ccc32)c1` [Example 108, (E)-6-Benzyloxy-3,4-dihydro-1-[2-(4-bromo-2-thienyl)vinyl]isoquinoline], the concentration for half-maximal inhibition (IC50) reads like this: under setting [1], 2.7 µg/mL (≈ 6.36 µM); under setting [2], 6.1 µg/mL (≈ 14.4 µM).

Regarding `CCCc1c(O)c(OC)cc2c1CCN=C2C=Cc1ccccc1Cl` [Example 180, 1-(2-Chlorostyryl)-3,4-dihydro-6-hydroxy-7-methoxy-5-propylisoquinoline], the 50% inhibitory concentration (IC50) reads like this: under setting [1], 1 µg/mL (≈ 2.81 µM); under setting [2], 1.6 µg/mL (≈ 4.5 µM).

(Values after patent US4968698A, “Nitrogen containing heterocyclic compounds” (Burroughs Wellcome Co., priority 1984, dated 1990).)
